Laboratory results from PMC2775811 (The Journal of neuroscience : the official journal of the …, 2009).

Legend:
Hsp70 = Hsp70 (Homo sapiens, UniProt P0DMV8); assay: malachite green ATPase assay, 8-point dose dependence; assay type: biochemical
Hsc70 = Hsc70 (Homo sapiens, UniProt P11142); assay: […]-1H HSQC-TROSY NMR titration, […]-labelled apo-Hsc70; assay type: binding

| Compound | IC50 (Hsp70) [µM] | Kd (Hsc70) [µM] |
| --- | --- | --- |
| CNc1ccc2nc3ccc(N)cc3[s+]c2c1 [AC, azure C] | 11 |  |
| O=c1c(O)c(-c2cc(O)c(O)c(O)c2)oc2cc(O)cc(O)c12 [MY, myricetin] | 12 |  |
| CN(C)c1ccc2nc3ccc(=[N+](C)C)cc-3sc2c1 [MB, methylene blue] | 83 | ~1 |
